Values of other authors, collected in patent publication US20210046029A1, “LEVODOPA AND CARBIDOPA INTESTINAL GEL AND METHODS OF USE” (AbbVie Inc., priority 2015, published 2021).

Biological target: T1, peripheral dopa decarboxylase (Homo sapiens, UniProt P20711)
T1 construct: host or cells: endogenous enzyme of peripheral tissues in vivo
T1 sequence (P20711 1-480): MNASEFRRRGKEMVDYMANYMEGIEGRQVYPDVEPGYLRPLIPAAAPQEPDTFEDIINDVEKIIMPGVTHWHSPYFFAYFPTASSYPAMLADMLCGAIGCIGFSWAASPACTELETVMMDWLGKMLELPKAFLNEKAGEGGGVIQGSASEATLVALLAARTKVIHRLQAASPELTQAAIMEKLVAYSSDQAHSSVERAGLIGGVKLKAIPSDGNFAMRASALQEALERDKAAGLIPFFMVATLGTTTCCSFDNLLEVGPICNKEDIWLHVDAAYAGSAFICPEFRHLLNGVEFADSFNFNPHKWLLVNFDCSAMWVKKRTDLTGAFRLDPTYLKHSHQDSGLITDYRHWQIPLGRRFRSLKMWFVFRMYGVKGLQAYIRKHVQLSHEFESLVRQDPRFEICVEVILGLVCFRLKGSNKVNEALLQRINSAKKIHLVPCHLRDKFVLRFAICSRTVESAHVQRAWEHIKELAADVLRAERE
Settings: in vivo

C[C@@](Cc1ccc(O)c(O)c1)(NN)C(=O)O [carbidopa, (2S)-3-(3,4-dihydroxy-phenyl)-2-hydrazino-2-methylpropanoic acid]
Carbidopa dose that saturates peripheral dopa decarboxylase: 70-100 mg a day
